In ChEMBL document CHEMBL1268964, “CWJ-081, a novel 3-arylisoquinoline derivative, induces apoptosis in human leukemia HL-60 cells partially involves reactive oxygen species through c-Jun NH2-terminal kinase pathway” (Bioorg Med Chem Lett, 2010):
The source made the active and inactive calls. The calls are words filed in the database; no cut-off is given here.

Key:
U-937 [1] = assay: Induction of apoptosis in human U937 cells assessed as intercucleosomal DNA fragmentation at 10 uM by […] staining by flow cytometry; assay type: functional, cell-based; settings: TDE = time-dependent effect
HL-60 [2] = assay: Induction of apoptosis in NAC pretreated human HL60 cells assessed as increase in JNK phosphorylation level; assay type: functional, cell-based
HL-60 [3] = assay: Cytotoxicity against human HL60 cells by MTT assay; assay type: functional, cell-based
HL-60 [4] = assay: Induction of apoptosis in human HL60 cells assessed as procaspase 3 cleavage at 10 uM after 36 hrs by Western blot analysis; assay type: functional, cell-based
U-937 [5] = assay: Cytotoxicity against human U937 cells by MTT assay; assay type: functional, cell-based
[6] = Cytotoxicity against human IOSE-80PC cells by MTT assay; assay type: cell-based
K562 [7] = assay: Induction of apoptosis in human K562 cells assessed as intercucleosomal DNA fragmentation at 10 uM by […] staining by flow cytometry; assay type: functional, cell-based; settings: TDE = time-dependent effect
HL-60 [8] = assay: Induction of apoptosis in human HL60 cells assessed as increase in ROS production in presence of 10 mM NAC; assay type: functional, cell-based
U-937 [9] = assay: Induction of apoptosis in human U937 cells assessed as early apoptotic cells at 10 uM by Annexin V staining; assay type: functional, cell-based; settings: TDE = time-dependent effect
[10] = Cytotoxicity against human Chang cells by MTT assay; assay type: cell-based
HL-60 [11] = assay: Induction of apoptosis in human HL60 cells assessed as Bcl-2 protein expression at 10 uM after 12 hrs by Western blot analysis; assay type: functional, cell-based
Ca-Ski = assay: Cytotoxicity against human CaSki cells by MTT assay; assay type: functional, cell-based
HL-60 [12] = assay: Induction of apoptosis in human HL60 cells in presence of 10 uM SP600125 JNK inhibitor; assay type: functional, cell-based
HL-60 [13] = assay: Induction of apoptosis in human HL60 cells assessed as increase in ROS production; assay type: functional, cell-based; settings: TDE = time-dependent effect
HeLa = assay: Cytotoxicity against human HeLa cells by MTT assay; assay type: functional, cell-based
HL-60 [14] = assay: Induction of apoptosis in human HL60 cells assessed as intercucleosomal DNA fragmentation at 10 uM by […] staining by flow cytometry; assay type: functional, cell-based; settings: TDE = time-dependent effect
HL-60 [15] = assay: Induction of apoptosis in human HL60 cells assessed as loss of mitochondrial membrane potential at 50 uM after 24 hrs by DiOC6 staining; assay type: functional, cell-based
HL-60 [16] = assay: Induction of apoptosis in human HL60 cells assessed as PARP-1 at 10 uM after 36 hrs by Western blot analysis; assay type: functional, cell-based
HL-60 [17] = assay: Induction of apoptosis in human HL60 cells assessed as cytochrome c release from mitochondria at 10 uM after 24 hrs by Western blot analysis; assay type: functional, cell-based
HL-60 [18] = assay: Induction of apoptosis in human HL60 cells assessed as increase in JNK phosphorylation level at 6 hrs; assay type: functional, cell-based
K562 [19] = assay: Induction of apoptosis in human K562 cells assessed as early apoptotic cells at 10 uM by Annexin V staining; assay type: functional, cell-based; settings: TDE = time-dependent effect
HL-60 [20] = assay: Induction of apoptosis in human HL60 cells assessed as procaspase 9 cleavage at 10 uM after 36 hrs by Western blot analysis; assay type: functional, cell-based
HL-60 [21] = assay: Induction of apoptosis in human HL60 cells assessed as procaspase 8 cleavage at 10 uM after 36 hrs by Western blot analysis; assay type: functional, cell-based
HL-60 [22] = assay: Induction of apoptosis in NAC pretreated human HL60 cells assessed as increase in ROS production; assay type: functional, cell-based
K562 [23] = assay: Cytotoxicity against human K562 cells by MTT assay; assay type: functional, cell-based
HL-60 [24] = assay: Induction of apoptosis in human HL60 cells assessed as early apoptotic cells at 10 uM by Annexin V staining; assay type: functional, cell-based; settings: TDE = time-dependent effect
HL-60 [25] = assay: Induction of apoptosis in human HL60 cells assessed as cytochrome c release from mitochondria at 10 uM after 12 hrs by Western blot analysis; assay type: functional, cell-based
[26] = Cytotoxicity against human L-132 cells by MTT assay; assay type: cell-based; settings: L132
HL-60 [27] = assay: Induction of apoptosis in human HL60 cells assessed as increase in JNK phosphorylation level at 12 hrs; assay type: functional, cell-based
HL-60 [28] = assay: Induction of apoptosis in human HL60 cells assessed as Bcl-2 family expression at 10 uM by Western blot analysis; assay type: functional, cell-based; settings: TDE = time-dependent effect
HL-60 [29] = assay: Induction of apoptosis in human HL60 cells assessed as Bax protein expression at 10 uM after 12 hrs by Western blot analysis; assay type: functional, cell-based

## CCc1cc2c(cc1-c1cc3ccc(OC)c(OC)c3c(=O)n1C)OCO2
U-937 [1]
  Activity: tde
HL-60 [2]
  Activity: inactive
HL-60 [3]
  IC50: 5.62 µM
HL-60 [4]
  Activity: Active
U-937 [5]
  IC50: 33.2 µM
[6]
  IC50: 68 µM
K562 [7]
  Activity: tde
HL-60 [8]
  Activity: inactive
U-937 [9]
  Activity: tde
[10]
  IC50: 39.9 µM
HL-60 [11]
  Activity: Active
Ca-Ski
  IC50: 47.3 µM
HL-60 [12]
  Activity: Active
HL-60 [13]
  Activity: tde
HeLa
  IC50: 42.2 µM
HL-60 [14]
  Activity: tde
HL-60 [15]
  Activity: Active
HL-60 [16]
  Activity: Active
HL-60 [17]
  Activity: Active
HL-60 [18]
  Activity: Active
K562 [19]
  Activity: tde
HL-60 [20]
  Activity: Active
HL-60 [21]
  Activity: Active
HL-60 [22]
  Activity: inactive
K562 [23]
  IC50: 38.1 µM
HL-60 [24]
  Activity: tde
HL-60 [25]
  Activity: Active
[26]
  IC50: 59.4 µM
HL-60 [27]
  Activity: inactive
HL-60 [28]
  Activity: tde
HL-60 [29]
  Activity: Active
